Consider 22 molecules from patent US20250368628A1, “METHODS AND COMPOUNDS FOR MODULATING INHERITED GENETIC DISEASES” (Design Therapeutics, Inc., priority 2022, published 2025).

Usually EC50 stands for the concentration giving half of the maximal effect.

In test [1] the test system is Myotonic Dystrophy 1 affected patient fibroblasts (Coriel GM04602; 1600 CTG repeats). The test is described as follows: DM1 foci reduction assay (EC50 assay; CAG10-Cy3 FISH, foci per nucleus). The class given is cell-based. The conditions noted are these: Homo sapiens, Fibroblast. The gist of the method: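 GM04602 DM1 patient fibroblasts (1600 CTG repeats) seeded 24 h, then treated 48 h at 37 °C with an 8-point 1:3 dose series from 3 μM. Cells PFA-fixed, ethanol-permeabilized and hybridized overnight with 5 nM CAG10-Cy3 probe, DAPI counterstained. Imaged at 20×, 4 fields per well, as average foci per nucleus.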

A further test has as its system F35T cells. Put plainly: Foci reduction in FECD (CAG10-Cy3 FISH, foci per nucleus). The class given is cell-based. The gist of the method:
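F35T cells, 5000 per well, were treated for 48 h at 37 °C, 5% CO2 in an 8-point dose response. Cells were then fixed in 4% PFA, permeabilized in 70% ethanol and hybridized overnight at 37 °C with a CAG10-Cy3 probe in 30% formamide/2×SSC. After DAPI staining, imaging gave foci per nucleus.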

Where [2] appears, read: DM1 patient fibroblasts, 48 h treatment, foci per nucleus, read-out: DM1 EC50, 48 h.
The mark [3] stands for this setting: F35T cells, 48 h treatment, foci per nucleus, read-out: FECD EC50, 48 h.

Like-named read-outs stand apart in the source and are kept apart here.

Regarding `Cn1cc(NC(=O)c2nc(NC(=O)CCNC(=O)c3cc(NC(=O)c4nccn4C)cn3C)cn2C)cc1C(=O)NCCCC(=O)Nc1cn(C)c(C(=O)NCCC(=O)Nc2cc(C(=O)Nc3cn(C)c(C(=O)NCCC(=O)N4CCN(CCOCCOCCOCCOCCN)CC4)n3)n(C)c2)n1` [Compound B-28], the EC50 (in test [1] (setting [2]); in the test on F35T cells (setting [3])) was 500 to 1000 nM throughout.
Turning to `CCN(CC)CCCC[C@H](NC(=O)C1CCNCC1)C(=O)NCCOCCOCCOCCOCCOCCNC(=O)CCNC(=O)c1nc(NC(=O)c2cc(NC(=O)CCNC(=O)c3nc(NC(=O)CCCNC(=O)c4cc(NC(=O)c5nc(NC(=O)CCNC(=O)c6cc(NC(=O)c7nccn7C)cn6C)cn5C)cn4C)cn3C)cn2C)cn1C` [Compound B-95], the EC50 was 500 to 1000 nM in test [1] (setting [2]) and greater than 1000 nM in the test with F35T cells (setting [3]).
With `CCCNC(=O)CCNC(=O)c1nc(NC(=O)c2cc(NC(=O)CCNC(=O)c3nc(NC(=O)CCCNC(=O)c4cc(NC(=O)c5nc(NC(=O)CCNC(=O)c6cc(NC(=O)c7nccn7C)cn6C)cn5C)cn4CCCCCN(CCOCCOCCOCCOC)CCOCCOCCOCCOC)cn3C)cn2C)cn1C` [Compound B-161], the EC50 in test [1] (setting [2]) was 500 to 1000 nM; in the test on F35T cells (setting [3]) it was 100 to 500 nM.
In the same order, the values of `Cn1cc(NC(=O)c2nccn2C)cc1C(=O)NCCC(=O)Nc1cn(C)c(C(=O)Nc2cc(C(=O)NCC[C@@H](N)C(=O)Nc3cn(C)c(C(=O)NCCC(=O)Nc4cc(C(=O)Nc5cn(C)c(C(=O)NCCC(=O)N6CCC(C#CC#CC7CCNCC7)CC6)n5)n(C)c4)n3)n(C)c2)n1` [Compound B-407] are 100 to 500 nM and 500 to 1000 nM.
Take `COC(=O)c1ccc(C#CCNCCCNC(=O)c2nc(NC(=O)c3cc(NC(=O)CCNC(=O)c4nc(NC(=O)CCCNC(=O)c5cc(NC(=O)c6nc(NC(=O)CCNC(=O)c7cc(NC(=O)c8nccn8C)cn7C)cn6C)cn5C)cn4C)cn3C)cn2C)cc1` [Compound B-362]: the EC50 (in test [1] (setting [2]); in the test on F35T cells (setting [3])) was less than 100 nM each time.
For the molecule `CC(Nc1cc(C(=O)NCCC(=O)Nc2cn(C)c(C(=O)Nc3cc(C(=O)NCCCC(=O)Nc4cn(C)c(C(=O)Nc5cc(C(=O)NCCC(=O)Nc6cn(C)c(C(=O)NCCC(=O)NCCOCCOCCOCCOCCOCCNC(=O)[C@H](CO)NC(=O)OC(C)(C)C)n6)n(C)c5)n4)n(C)c3)n2)n(C)c1)c1nccn1C` (some centres unmarked) [Compound B-110], the EC50 in test [1] (setting [2]) lay in the range of 500 to 1000 nM; in the test with F35T cells (setting [3]), 100 to 500 nM.
For the molecule `CN1CCN(C(=O)CCNC(=O)c2nc(NC(=O)c3cc(NC(=O)CCNC(=O)c4nc(NC(=O)C[C@@H](N)CNC(=O)c5cc(NC(=O)c6nc(NC(=O)CCNC(=O)c7cc(NC(=O)c8nccn8C)cn7C)cn6C)cn5C)cn4C)cn3C)cn2C)CC1` [Compound B-416], the EC50 in test [1] (DM1 patient fibroblasts, foci per nucleus, 48 h treatment, read-out: DM1 EC50, 48 h) is 500 to 1000 nM; with F35T cells (F35T cells, foci per nucleus, 48 h treatment, read-out: FECD EC50, 48 h), greater than 1000 nM.
In the case of `CCN(CC)CCCC[C@H](NC(C)=O)C(=O)Nc1ccc(CNC(=O)CCNC(=O)c2nc(NC(=O)c3cc(NC(=O)CCNC(=O)c4nc(NC(=O)CCCNC(=O)c5cc(NC(=O)c6nc(NC(=O)CCNC(=O)c7cc(NC(=O)c8nccn8C)cn7C)cn6C)cn5C)cn4C)cn3C)cn2C)cc1` [Compound B-149], the results for the EC50 (in test [1] (setting [2]); in the test with F35T cells (setting [3])) were 100 to 500 nM and greater than 1000 nM, respectively.
In the same order, the values of `Cn1cc(NC(=O)c2nc(NC(=O)CCNC(=O)c3cc(NC(=O)c4nccn4C)cn3C)cn2C)cc1C(=O)NCCCC(=O)Nc1cn(C)c(C(=O)NCCC(=O)Nc2cc(C(=O)Nc3cn(C)c(C(=O)NCCC(=O)N4CCC(N5CCNCC5)CC4)n3)n(C)c2)n1` [Compound B-31] are less than 100 nM and 100 to 500 nM.
On to `Cn1cc(NC(=O)c2nc(NC(=O)CCNC(=O)c3cc(NC(=O)c4nccn4C)cn3C)cn2C)cc1C(=O)NCCCC(=O)Nc1cn(C)c(C(=O)NCCC(=O)Nc2cc(C(=O)Nc3cn(C)c(C(=O)NCCC(=O)NC(CO)(CO)CO)n3)n(C)c2)n1` [Compound B-46], for which the EC50 was in the range of 500 to 1000 nM in test [1] (setting [2]) and 100 to 500 nM with F35T cells (setting [3]).
Take `CCCNC(=O)CCNC(=O)c1nc(NC(=O)c2cc(NC(=O)CCNC(=O)c3nc(NC(=O)CCCNC(=O)c4cc(NC(=O)c5nc(NC(=O)CCNC(=O)c6cc(NC(=O)c7nc(N=C(N(C)C)N(C)C)cn7C)cn6C)cn5C)cn4C)cn3C)cn2C)cn1C` [Compound B-326]: the EC50 is 100 to 500 nM in test [1] (setting [2]) and greater than 1000 nM with F35T cells (setting [3]).
Turning to `Cn1cc(NC(=O)c2nc(NC(=O)CCNC(=O)c3cc(NC(=O)c4nccn4C)cn3C)cn2C)cc1C(=O)NCCCC(=O)Nc1cn(C)c(C(=O)NCCC(=O)Nc2cc(C(=O)Nc3cn(C)c(C(=O)NCCC(=O)N4CCC(C#CC#CC5CCN(C(=O)OC(C)(C)C)CC5)CC4)n3)n(C)c2)n1` [Compound B-378, Tert-butyl 4-[4-(1-{3-[(1-methyl-4-{1-methyl-4-[3-({1-methyl-4-[4-({1-methyl-4-[1-methyl-4-(3-{[1-methyl-4-(1-methylimidazole-2-amido)pyrrol-2-yl]formamido}propanamido)imidazole-2-amido]pyrrol-2-yl}formamido)butanamido]imidazol-2-yl}formamido)propanamido]pyrrole-2-amido}imidazol-2-yl)formamido]propanoyl}piperidin-4-yl)buta-1,3-diyn-1-yl]piperidine-1-carboxylate], the EC50 in test [1] (setting [2]) is greater than 1000 nM; in the test with F35T cells (setting [3]) it was 100 to 500 nM.
For `CCCNC(=O)c1nc(NC(=O)c2cc(NC(=O)CCNC(=O)c3nc(NC(=O)CCCNC(=O)c4cc(NC(=O)c5nc(NC(=O)CCNC(=O)c6cc(NC(=O)c7nc(NC=O)cn7C)cn6C)cn5C)cn4C)cn3C)cn2C)cn1C` [Compound B-327], the EC50 (in test [1] (setting [2]); with F35T cells (setting [3])) was less than 100 nM in each case.
For the molecule `CCCNC(=O)CCNC(=O)c1nc(NC(=O)c2cc(NC(=O)CCNC(=O)c3nc(NC(=O)[C@H](N)CCNC(=O)c4cc(NC(=O)c5nc(NC(=O)CCNC(=O)c6cc(NC(=O)c7nccn7C)cn6C)cn5C)cn4C)cn3C)cn2C)cn1C` [Compound B-3, N-(5-{[(3R)-3-amino-3-[(1-methyl-2-{[2-({1-methyl-5-[(1-methyl-2-{[2-(propylcarbamoyl)ethyl]carbamoyl}imidazol-4-yl)carbamoyl]pyrrol-3-yl}carbamoyl)ethyl]carbamoyl}imidazol-4-yl)carbamoyl]propyl]carbamoyl}-1-methylpyrrol-3-yl)-1-methyl-4-(3-{[1-methyl-4-(1-methylimidazole-2-amido)pyrrol-2-yl]formamido}propanamido)imidazole-2-carboxamide], the EC50 in test [1] (setting [2]) is less than 100 nM; in the test on F35T cells (setting [3]), 500 to 1000 nM.
For `CN(C)c1ccc(C#CCNC(=O)CCNC(=O)c2nc(NC(=O)c3cc(NC(=O)CCNC(=O)c4nc(NC(=O)CCCNC(=O)c5cc(NC(=O)c6nc(NC(=O)CCNC(=O)c7cc(NC(=O)c8nccn8C)cn7C)cn6C)cn5C)cn4C)cn3C)cn2C)cc1` [Compound B-135] the same measures were less than 100 nM and 100 to 500 nM.
Regarding `CC(=O)N[C@H](CCNC(=O)c1cc(NC(=O)c2nc(NC(=O)CCNC(=O)c3cc(NC(=O)c4nccn4C)cn3C)cn2C)cn1C)C(=O)Nc1cn(C)c(C(=O)NCCC(=O)Nc2cc(C(=O)Nc3cn(C)c(C(=O)NCCC(=O)N4CCN(C)CC4)n3)n(C)c2)n1` [Compound B-404], the concentration for a half-maximal effect (EC50) in test [1] (setting [2]) was 500 to 1000 nM; in the test with F35T cells (setting [3]), 100 to 500 nM.
As to `CN(C)CCOCCNC(=O)CCNC(=O)c1nc(NC(=O)c2cc(NC(=O)CCNC(=O)c3nc(NC(=O)CCCNC(=O)c4cc(NC(=O)c5nc(NC(=O)CCNC(=O)c6cc(NC(=O)c7nccn7C)cn6C)cn5C)cn4C)cn3C)cn2C)cn1C` [Compound B-42], the EC50 (in test [1] (setting [2]); in the test with F35T cells (setting [3])) was 100 to 500 nM throughout.
As for `CCCNC(=O)CCNC(=O)c1nc(NC(=O)c2cc(NC(=O)CCNC(=O)c3nc(NC(=O)CCCNC(=O)c4cc(NC(=O)c5nc(NC(=O)CCNC(=O)c6cc(NC(=O)c7nccn7C)cn6C)cn5C)cn4CCNC(C)=O)cn3C)cn2C)cn1C` [Compound B-268], the EC50 in test [1] (setting [2]) is 100 to 500 nM; in the test on F35T cells (setting [3]), less than 100 nM.
As to `CN(CCCNC(=O)c1cccc(C(=O)OC(C)(C)C)c1)CCCNC(=O)c1nc(NC(=O)c2cc(NC(=O)CCNC(=O)c3nc(NC(=O)CCCNC(=O)c4cc(NC(=O)c5nc(NC(=O)CCNC(=O)c6cc(NC(=O)c7nccn7C)cn6C)cn5C)cn4CCCCCCN=[N+]=[N-])cn3C)cn2C)cn1C` [Compound B-365], the EC50 in test [1] (setting [2]) was less than 100 nM; in the test on F35T cells (setting [3]), 100 to 500 nM.
For `CCN(CC)CCCC[C@H](NC(=O)c1cccnc1)C(=O)NCCOCCOCCOCCOCCOCCNC(=O)CCNC(=O)c1nc(NC(=O)c2cc(NC(=O)CCNC(=O)c3nc(NC(=O)CCCNC(=O)c4cc(NC(=O)c5nc(NC(=O)CCNC(=O)c6cc(NC(=O)c7nccn7C)cn6C)cn5C)cn4C)cn3C)cn2C)cn1C` [Compound B-94], the values for the EC50 (in test [1] (setting [2]); in the test on F35T cells (setting [3])) were 500 to 1000 nM and 100 to 500 nM, respectively.
As to `COCCOCCOCCOCCN(CCOCCOCCOCCOC)C(=O)CCCCn1cc(NC(=O)c2nc(NC(=O)CCNC(=O)c3cc(NC(=O)c4nccn4C)cn3C)cn2C)cc1C(=O)NCCCC(=O)Nc1cn(C)c(C(=O)NCCC(=O)Nc2cc(C(=O)Nc3cn(C)c(C(=O)NCCC(=O)NCCOCCOCCOCCN4CCC(C#CC#CC5CCN(C(=O)OC(C)(C)C)CC5)CC4)n3)n(C)c2)n1` [Compound B-228], the EC50 (in test [1] (setting [2]); in the test on F35T cells (setting [3])) was 100 to 500 nM throughout.
With `Cn1cc(NC(=O)c2nc(NC(=O)CCNC(=O)c3cc(NC(=O)c4nccn4C)cn3C)cn2C)cc1C(=O)NCCCC(=O)Nc1cn(C)c(C(=O)NCCC(=O)Nc2cc(C(=O)Nc3cn(C)c(C(=O)NCCC(=O)NC(CO)COP(=O)(O)Oc4ccccc4Cl)n3)n(C)c2)n1` (centres unmarked) [Compound B-394], the EC50 was 100 to 500 nM in test [1] (48 h, read-out: DM1 EC50, 48 h (nM)) and 500 to 1000 nM in the test on F35T cells (48 h, read-out: FECD EC50, 48 h (nM)).
